Data from US5449752A, “Polypeptides with affinity to lipopolysaccharides and their uses” (Seikagaku Kogyo K.K., priority 1991, dated 1995).
Converted amounts (≈) assume the structure as drawn. Positions of bridges follow the written chain, without caps; N, C: chain ends. Residues, ends and D or L forms follow the SMILES beside them. No end group written: not given here.

Experiments:
[1] = system: HIV; assay: Antiviral activity against HIV in HIV-infected MT-4 cells (MTT method); assay type: cell-based, human immunodeficiency virus; settings: for EC50 (concentration at which cell death due to HIV infection is 50% inhibited): HIV-infected MT-4 cells, MOI 0.001, 37° C., 5 days, MTT method; for SI (CC50 /EC50): rough ratio of CC50 to EC50, MT-4 cells; for selectivity in killing HIV infected cells (in words): MT-4 cells, Table III; for selectivity index higher than for any of the known high endotoxin affinity compounds: compared with Tachyplesins and Polyphemusins of Table III
Method: The antiviral activity-against HIV of the polypeptide (1) synthesized in Example 1 as well as polypeptides (2), (3), (4), (7), (12), (13), (14), (20), (21) and (26) was tested and evaluated according to the following method.
(§1) HIV-infected MT-4 cells (2.5×10^4 cells/well, multiplicity of infection (MOI): 0.001) immediately after infection were added together with the test substance with various changes of the concentration to a 96-well microtitre plate. After incubation at 37° C. for 5 days in a CO2 incubator, the number of survivor cells was measured by the MTT method [Pauwels et al.; J. Virol. Methods, 20, 309-321 (1988)]. The antiviral activity is expressed as a concentration at which cell death due to HIV infection is 50% inhibited (EC50 : 50% effective concentration). On the other hand, in order to know the cytotoxicity of the test substance on the MT-4 cells, virus-noninfected cells are incubated, likewise as above, together with the test compound with various changes of the concentration. The cytotoxicity is expressed as 50% cytotoxic concentration […] due to the test substance. Further, the rough ratio of CC50 to EC50 (CC50 /EC50) is expressed as an effective ratio (SI=selectivity index).

[2] = system: MT-4 cells; assay: Cytotoxicity on virus-noninfected MT-4 cells (MTT method); assay type: cell-based; settings: 37° C., 5 days
Method: as §1

Molecule | EC50 (concentration at which cell death due to HIV infection is 50% inhibited) [1] | CC50 (50% cytotoxic concentration) [2] | SI (CC50 /EC50) [1] | selectivity in killing HIV infected cells (in words) [1] | selectivity index higher than for any of the known high endotoxin affinity compounds [1]
N=C(N)NCCC[C@H](NC(=O)[C@H](CCCNC(=N)N)NC(=O)[C@@H]1CSSC[C@H](NC(=O)[C@H](Cc2c[nH]c3ccccc23)NC(=O)[C@H](CCCNC(=N)N)NC(=O)[C@@H](N)CCCNC(=N)N)C(=O)N[C@@H](Cc2ccc(O)cc2)C(=O)N[C@@H](CCCNC(=N)N)C(=O)N[C@@H](CCCCN)C(=O)N[C@H]2CSSC[C@H](NC(=O)[C@H](Cc3ccc(O)cc3)NC(=O)CNC(=O)[C@H](CCCCN)NC(=O)[C@H](Cc3ccc(O)cc3)NC2=O)C(=O)N[C@@H](Cc2ccc(O)cc2)C(=O)N[C@@H](CCCNC(=N)N)C(=O)N[C@@H](CCCCN)C(=O)N1)C(N)=O [polypeptide (2), ArgArgTrpCysTyrArgLysCysTyrLysGlyTyrCysTyrArgLysCysArgArgNH2] (H-RRWCYRKCYKGYCYRKCRR-NH2; disulfide 4-17, 8-13; N-terminus assumed) | 1.26 µg/mL (≈ 0.477 µM) | 200 µg/mL (≈ 75.7 µM) |  |  | 
ArgArgTyrCysTyrArgLysCysTyrLysGlyTyrCysTrpArgLysCysArgNH2 (RRYCYRKCYKGYCWRKCR-NH2; cysteine pairing not given here) [polypeptide (7)] | 0.36 µg/mL | 100 µg/mL | 278 |  | 
Cc1cn([C@H]2C[C@H](N=[N+]=[N-])[C@@H](CO)O2)c(=O)[nH]c1=O [AZT, reference compound] | 4.8 µg/mL (≈ 18 µM) | 6.8 µg/mL (≈ 25.4 µM) |  |  | 
N=C(N)NCCC[C@H](NC(=O)[C@@H]1CSSC[C@H](NC(=O)[C@H](Cc2c[nH]c3ccccc23)NC(=O)[C@H](CCCNC(=N)N)NC(=O)[C@@H](N)CCCNC(=N)N)C(=O)N[C@@H](Cc2ccc(O)cc2)C(=O)N[C@@H](CCCNC(=N)N)C(=O)N[C@@H](CCCCN)C(=O)N[C@H]2CSSC[C@H](NC(=O)[C@H](Cc3ccccc3)NC(=O)CNC(=O)[C@H](CCCCN)NC(=O)[C@H](Cc3ccc(O)cc3)NC2=O)C(=O)N[C@@H](Cc2ccc(O)cc2)C(=O)N[C@@H](CCCNC(=N)N)C(=O)N[C@@H](CCCCN)C(=O)N1)C(N)=O [polypeptide (13), ArgArgTrpCysTyrArgLysCysTyrLysGlyPheCysTyrArgLysCysArgNH2] (H-RRWCYRKCYKGFCYRKCR-NH2; disulfide 4-17, 8-13; N-terminus assumed) | 0.009 µg/mL (≈ 0.00364 µM) | 52 µg/mL (≈ 21 µM) |  | particularly selective | at least 7 fold
N=C(N)NCCC[C@H](NC(=O)[C@@H]1CSSC[C@H](NC(=O)[C@H](Cc2c[nH]c3ccccc23)NC(=O)[C@H](CCCNC(=N)N)NC(=O)[C@@H](N)CCCNC(=N)N)C(=O)N[C@@H](Cc2ccc(O)cc2)C(=O)N[C@@H](CCCNC(=N)N)C(=O)N[C@@H](CCCCN)C(=O)N[C@H]2CSSC[C@H](NC(=O)[C@H](Cc3ccc(O)cc3)NC(=O)CNC(=O)[C@H](CCCNC(=N)N)NC(=O)[C@H](Cc3ccc(O)cc3)NC2=O)C(=O)N[C@@H](Cc2ccc(O)cc2)C(=O)N[C@@H](CCCNC(=N)N)C(=O)N[C@@H](CCCCN)C(=O)N1)C(N)=O [polypeptide (14), ArgArgTrpCysTyrArgLysCysTyrArgGlyTyrCysTyrArgLysCysArgNH2] (H-RRWCYRKCYRGYCYRKCR-NH2; disulfide 4-17, 8-13; N-terminus assumed) | 0.018 µg/mL (≈ 0.00716 µM) | 52 µg/mL (≈ 20.7 µM) |  | particularly selective | at least 7 fold
N=C(N)NCCC[C@H](NC(=O)[C@H](CCCNC(=N)N)NC(=O)[C@@H]1CSSC[C@H](NC(=O)[C@H](Cc2c[nH]c3ccccc23)NC(=O)[C@@H](N)CCCNC(=N)N)C(=O)N[C@@H](Cc2ccc(O)cc2)C(=O)N[C@@H](CCCNC(=N)N)C(=O)N[C@@H](CCCCN)C(=O)N[C@H]2CSSC[C@H](NC(=O)[C@H](Cc3ccccc3)NC(=O)CNC(=O)[C@H](CCCCN)NC(=O)[C@H](Cc3ccc(O)cc3)NC2=O)C(=O)N[C@@H](Cc2ccc(O)cc2)C(=O)N[C@@H](CCCNC(=N)N)C(=O)N[C@@H](CCCCN)C(=O)N1)C(N)=O [polypeptide (4), ArgTrpCysTyrArgLysCysTyrLysGlyPheCysTyrArgLysCysArgArgNH2] (H-RWCYRKCYKGFCYRKCRR-NH2; disulfide 3-16, 7-12; N-terminus assumed) | 2.75 µg/mL (≈ 1.11 µM) | 338 µg/mL (≈ 137 µM) |  |  | 
N=C(N)NCCC[C@H](NC(=O)[C@@H]1CSSC[C@H](NC(=O)[C@H](Cc2c[nH]c3ccccc23)NC(=O)[C@H](CCCNC(=N)N)NC(=O)[C@@H](N)CCCNC(=N)N)C(=O)N[C@@H](Cc2ccc(O)cc2)C(=O)N[C@@H](CCCNC(=N)N)C(=O)N[C@@H](CCCCN)C(=O)N[C@H]2CSSC[C@H](NC(=O)[C@H](Cc3ccc(O)cc3)NC(=O)CNC(=O)[C@H](CCCCN)NC(=O)[C@H](Cc3ccc(O)cc3)NC2=O)C(=O)N[C@@H](Cc2ccc(O)cc2)C(=O)N[C@@H](CCCNC(=N)N)C(=O)N[C@@H](CCCCN)C(=O)N1)C(N)=O [polypeptide (1)] (H-RRWCYRKCYKGYCYRKCR-NH2; disulfide 4-17, 8-13) |  | 54 µg/mL (≈ 21.7 µM) | 10800 |  | 
CC(C)[C@@H]1NC(=O)[C@H](CCCNC(=N)N)NC(=O)[C@H](Cc2ccccc2)NC(=O)[C@@H](NC(=O)[C@H](Cc2c[nH]c3ccccc23)NC(=O)[C@H](CCCNC(=N)N)NC(=O)[C@@H](N)CCCNC(=N)N)CSSC[C@@H](C(=O)N[C@@H](CCCNC(=N)N)C(N)=O)NC(=O)[C@H](CCCCN)NC(=O)[C@H](CCCNC(=N)N)NC(=O)[C@H](Cc2ccc(O)cc2)NC(=O)[C@@H]2CSSC[C@H](NC1=O)C(=O)N[C@@H](Cc1ccc(O)cc1)C(=O)N[C@@H](CCCCN)C(=O)NCC(=O)N[C@@H](Cc1ccccc1)C(=O)N2 [Polyphemusin II, ArgArgTrpCysPheArgValCysTyrLysGlyPheCysTyrArgLysCysArg NH2, reference compound] (H-RRWCFRVCYKGFCYRKCR-NH2; disulfide 4-17, 8-13) | 1.9 µg/mL (≈ 0.783 µM) | 33 µg/mL (≈ 13.6 µM) | 17 |  | 
N=C(N)NCCC[C@H](NC(=O)[C@@H]1CSSC[C@H](NC(=O)[C@H](Cc2c[nH]c3ccccc23)NC(=O)[C@H](CCCNC(=N)N)NC(=O)[C@@H](N)CCCNC(=N)N)C(=O)N[C@@H](Cc2ccc(O)cc2)C(=O)N[C@@H](CCCCN)C(=O)N[C@@H](CCCNC(=N)N)C(=O)N[C@H]2CSSC[C@H](NC(=O)[C@H](Cc3ccc(O)cc3)NC(=O)CNC(=O)[C@H](CCCCN)NC(=O)[C@H](Cc3ccc(O)cc3)NC2=O)C(=O)N[C@@H](Cc2ccc(O)cc2)C(=O)N[C@@H](CCCCN)C(=O)N[C@@H](CCCNC(=N)N)C(=O)N1)C(N)=O [polypeptide (12), ArgArgTrpCysTyrLysArgCysTyrLysGlyTyrCysTyrLysArgCysArgNH2] (H-RRWCYKRCYKGYCYKRCR-NH2; disulfide 4-17, 8-13; N-terminus assumed) | 0.49 µg/mL (≈ 0.197 µM) | 245 µg/mL (≈ 98.5 µM) |  | particularly selective | at least 7 fold
N=C(N)NCCC[C@H](NC(=O)[C@@H]1CSSC[C@H](NC(=O)[C@H](Cc2c[nH]c3ccccc23)NC(=O)[C@@H](N)CCCNC(=N)N)C(=O)N[C@@H](Cc2ccc(O)cc2)C(=O)N[C@@H](CCCNC(=N)N)C(=O)N[C@@H](CCCCN)C(=O)N[C@H]2CSSC[C@H](NC(=O)[C@H](Cc3ccc(O)cc3)NC(=O)CNC(=O)[C@H](CCCCN)NC(=O)[C@H](Cc3ccc(O)cc3)NC2=O)C(=O)N[C@@H](Cc2ccc(O)cc2)C(=O)N[C@@H](CCCNC(=N)N)C(=O)N[C@@H](CCCCN)C(=O)N1)C(N)=O [polypeptide (26), ArgTrpCysTyrArgLysCysTyrLysGlyTyrCysTyrArgLysCysArgNH2] (H-RWCYRKCYKGYCYRKCR-NH2; disulfide 3-16, 7-12; N-terminus assumed) | 0.18 µg/mL (≈ 0.0772 µM) | 165 µg/mL (≈ 70.8 µM) |  | particularly selective | at least 7 fold
N=C(N)NCCC[C@H](NC(=O)[C@@H]1CSSC[C@H](NC(=O)[C@H](Cc2c[nH]c3ccccc23)NC(=O)[C@@H](N)CCCNC(=N)N)C(=O)N[C@@H](Cc2ccc(O)cc2)C(=O)N[C@@H](CCCNC(=N)N)C(=O)N[C@@H](CCCCN)C(=O)N[C@H]2CSSC[C@H](NC(=O)[C@H](Cc3ccccc3)NC(=O)CNC(=O)[C@H](CCCCN)NC(=O)[C@H](Cc3ccccc3)NC2=O)C(=O)N[C@@H](Cc2ccc(O)cc2)C(=O)N[C@@H](CCCNC(=N)N)C(=O)N[C@@H](CCCCN)C(=O)N1)C(N)=O [polypeptide (21), ArgTrpCysTyrArgLysCysPheLysGlyPheCysTyrArgLysCysArgNH2] (H-RWCYRKCFKGFCYRKCR-NH2; disulfide 3-16, 7-12; N-terminus assumed) | 0.08 µg/mL (≈ 0.0348 µM) | 53 µg/mL (≈ 23.1 µM) |  |  | 
